Measurements as given in ChEMBL document CHEMBL5252664, “Orally Active Forms of DMT, 5-MeO-DMT, and Long-Acting MDMA for the Treatment of Neuropsychiatric Disorders” (ACS Med Chem Lett, 2023).

What was measured:
Format in all cases: ADME, organism-based
Settings in all cases: in vivo
[1] = Half life in Sprague-Dawley rat at 10 mg/kg, po
[2] = Cmax in Sprague-Dawley rat at 10 mg/kg, po; design: dose 10 mg/kg, route po
[3] = AUC (0 to last) in Sprague-Dawley rat at 10 mg/kg, po; design: dose 10 mg/kg, route po
[4] = Tmax in Sprague-Dawley rat at 10 mg/kg, po

SMILES	half-life [1] [h]	Cmax [2] [ng/mL]	AUC(0-t) [3] [ng·h/mL]	Tmax [4] [h]
C[C@H](N)C(=O)n1cc(CCN(C)C)c2ccccc21.Cl.Cl	4.08	20.2	126	0.5
COc1ccc2c(c1)c(CCN(C)C)cn2C(=O)[C@@H](N)C(C)C.Cl.Cl	5.54	11.1	155	2
COc1ccc2c(c1)c(CCN(C)C)cn2C(=O)CCCC(C)=O	2.02	106	362	1
CN(C)CCc1cn(C(=O)CN(C)C(=O)[C@H](N)Cc2ccccc2)c2ccccc12.Cl.Cl	3.31	2.43	7.17	0.5
COc1ccc2c(c1)c(CCN(C)C)cn2C(=O)c1ccccc1	10.3	17.7	66.5	1
